The text below walks through data of patent US20260098053A1, “COMPOSITIONS AND METHODS FOR TREATING CNS DISORDERS” (SAGE THERAPEUTICS, INC., priority 2019, published 2026).

One test addresses [35S]-TBPS binding, rat brain cortical membranes. The experiment in a line: Steroid inhibition of [35S]-TBPS binding. The following applies: Table 4, 3 nM [35S]-TBPS, in the presence of 5 mM GABA, read-out: TBPS IC50. As for the experimental part: [35S]-t-Butylbicyclophosphorothionate (TBPS) binding assays using rat brain cortical membranes in the presence of 5 mM GABA has been described (Gee et al, J. Pharmacol. Exp. Ther. 1987, 241, 346-353; Hawkinson et al, Mol. Pharmacol. 1994, 46, 977-985; Lewin, A. H et al., Mol. Pharmacol. 1989, 35, 189-194).
Briefly, cortices are rapidly removed following decapitation of carbon dioxide-anesthetized Sprague-Dawley rats (200-250 g). The cortices are homogenized in 10 volumes of ice-cold 0.32 M sucrose using a glass/teflon homogenizer and centrifuged at 1500×g for 10 min at 4° C. The resultant supernatants are centrifuged at 10,000×g for 20 min at 4° C. to obtain the P2 pellets. The P2 pellets are resuspended in 200 mM NaCl/50 mM Na—K phosphate pH 7.4 buffer and centrifuged at 10,000×g for 10 min at 4° C. This washing procedure is repeated twice and the pellets are resuspended in 10 volumes of buffer. Aliquots ([…]) of the membrane suspensions are incubated with 3 nM [^35S]-TBPS and […] aliquots of test drug dissolved in dimethyl sulfoxide (DMSO) (final 0.5%) in the presence of 5 mM GABA. The incubation is brought to a final volume of 1.0 mL with buffer. Nonspecific binding is determined in the presence of […] and ranged from 15 to 25%. Following a 90 min incubation at room temp, the assays are terminated by filtration through glass fiber filters (Schleicher and Schuell No. 32) using a cell harvester (Brandel) and rinsed three times with ice-cold buffer. Filter bound radioactivity is measured by liquid scintillation spectrometry. Non-linear curve fitting of the overall data for each drug averaged for each concentration is done using Prism (GraphPad). […] The concentration of test compound producing 50% inhibition (IC50) of specific binding and the maximal extent of inhibition (Imax) are determined for the individual experiments with the same model used for the overall data and then the means±SEM.s of the individual experiments are calculated.
Various compounds are or can be screened to determine their potential as modulators of [^35S]-TBPS binding in vitro. These assays are or can be performed in accordance with the above
On to `CC(=O)[C@H]1CCC[C@H]2[C@@H]3CC[C@@H]4CC[C@](C)(O)CC[C@@H]4[C@H]3CC[C@]12C` [Example 1, 1-((1S,4aS,4bR,6aR,9S,11aS,11bR,13aS)-9-hydroxy-9,13a-dimethyloctadecahydro-1H-cyclohepta[a]phenanthren-1-yl)ethan-1-one], for which the IC50 is over 1000 nM. Still for that read-out and setting: for `CC(=O)[C@H]1CCC[C@H]2[C@@H]3CC=C4CC[C@](C)(O)CC[C@]4(C)[C@H]3CC[C@]12C` [Example 57, 1-((1S,4aS,4bS,9S,11aR,11bS,13aS)-9-hydroxy-9,11a,13a-trimethyl-2,3,4,4a,4b,5,7,8,9,10,11,11a,11b,12,13,13a-hexadecahydro-1H-cyclohepta[a]phenanthren-1-yl)ethanone] the value was under 100 nM. Still for that read-out and setting: for `CC[C@]12CC[C@H]3[C@@H](CC=C4CC[C@](C)(O)CC[C@@]43C)[C@@H]1CC[C@@H]2C(C)=O` [Example 34, 1-((1S,3aS,3bS,8S,10aR,10bS,12aS)-12a-ethyl-8-hydroxy-8,10a-dimethyl-1,2,3,3a,3b,4,6,7,8,9,10,10a,10b,11,12,12a-hexadecahydrocyclohepta[a]cyclopenta[f]naphthalen-1-yl)ethanone] the value was under 100 nM. Same read-out and setting: for `C[C@@]1(O)CCC[C@@]2(C)[C@H](CC[C@@H]3[C@@H]2CC[C@]2(C)[C@@H](C(=O)Cn4cc(C#N)cn4)CCCC[C@@H]32)C1` [Example 60] the value was under 100 nM. In the case of `CC[C@]1(O)CC[C@H]2CC[C@@H]3[C@H](CC[C@]4(C)[C@H](C(=O)Cn5cc(C#N)cn5)CCC[C@@H]34)[C@H]2CC1` [Example 48, 1-(2-((1R,4aS,4bR,6aR,9S,11aS,11bR,13aS)-9-ethyl-9-hydroxy-13a-methyloctadecahydro-1H-cyclohepta[a]phenanthren-1-yl)-2-oxoethyl)-1H-pyrazole-4-carbonitrile], the half-maximal inhibitory concentration (IC50) was over 1000 nM. `CC[C@@]1(O)CCC[C@H]2[C@H](CC[C@@H]3[C@@H]2CC[C@]2(C)[C@@H](C(C)=O)CCC[C@@H]32)C1` [Example 13, 1-((1S,4aS,4bR,6aR,8R,11aS,11bR,13aS)-8-ethyl-8-hydroxy-13a-methyloctadecahydro-1H-cyclohepta[a]phenanthren-1-yl)ethan-1-one]: the IC50 lay within 100 to 1000 nM. Still for that read-out and setting: for `CC(=O)[C@H]1CCCC[C@H]2[C@@H]3CC[C@@H]4C[C@](C)(O)CCC[C@]4(C)[C@H]3CC[C@]12C` [Example 59, 1-((1S,5aS,5bR,7aR,9R,12aS,12bS,14aS)-9-hydroxy-9,12a,14a-trimethylicosahydrodicyclohepta[a,f]naphthalen-1-yl)ethanone] the value was 100 to 1000 nM; for `CC[C@@]1(O)CCC[C@@]2(C)[C@H](CC[C@@H]3[C@@H]2CC[C@]2(C)[C@@H](C(C)=O)CCC[C@@H]32)C1` [Example 37, 1-((1S,4aS,4bR,6aR,8R,11aS,11bS,13aS)-8-ethyl-8-hydroxy-11a,13a-dimethyloctadecahydro-1H-cyclohepta[a]phenanthren-1-yl)ethanone], 100 to 1000 nM; for `CC[C@]12CC[C@H]3[C@@H](CC[C@@H]4C[C@](C)(O)CCC[C@@]43C)[C@@H]1CC[C@@H]2C(C)=O` [Example 29, 1-((1S,3aS,3bR,5aR,7R,10aS,10bS,12aS)-12a-ethyl-7-hydroxy-7,10a-dimethyloctadecahydrocyclohepta[a]cyclopenta[f]naphthalen-1-yl)ethanone], under 100 nM.

In the case of `CC[C@]12CC[C@@](C)(O)CC[C@H]1CC[C@H]1[C@@H]3CC[C@H](C(=O)Cn4cc(C#N)cn4)[C@@]3(C)CC[C@@H]12` [Example 26], the IC50 is 100 to 1000 nM. As for `CC[C@@]1(O)CCC[C@@]2(C)[C@@H](CC[C@@H]3[C@@H]2CC[C@]2(C)[C@@H](C(=O)Cn4cc(C#N)cn4)CCC[C@@H]32)C1` [Example 42, 1-(2-((1S,4aS,4bR,6aS,8R,11aS,11bS,13aS)-8-ethyl-8-hydroxy-11a,13a-dimethyloctadecahydro-1H-cyclohepta[a]phenanthren-1-yl)-2-oxoethyl)-1H-pyrazole-4-carbonitrile], the IC50 is 100 to 1000 nM.

Take `Cc1nnnn1CC(=O)[C@H]1CCCC[C@H]2[C@@H]3CC[C@@H]4C[C@](C)(O)CCC[C@]4(C)[C@H]3CC[C@]12C` [Example 63, 1-((1S,5aS,5bR,7aR,9R,12aS,12bS,14aS)-9-hydroxy-9,12a,14a-trimethylicosahydrodicyclohepta[a,f]naphthalen-1-yl)-2-(5-methyl-1H-tetrazol-1-yl)ethanone]: the IC50 lay in the range of 100 to 1000 nM. The same measure, in the same setting: for `CC[C@]12CC[C@H]3[C@@H](CC[C@@H]4CC[C@](C)(O)CC[C@@H]43)[C@@H]1CC[C@@H]2C(=O)Cn1cc(C#N)cn1` [Example 33] the value was 100 to 1000 nM.

As for `CC[C@]12CC[C@@](C)(O)C[C@H]1CC[C@H]1[C@@H]3CCCC[C@H](C(=O)Cn4cc(C#N)cn4)[C@@]3(C)CC[C@@H]12` [Example 24], the IC50 was under 100 nM. Regarding `C[C@]1(O)CC[C@@H]2CC[C@@H]3[C@H](CC[C@]4(C)[C@@H](C(=O)CCn5cc(C#N)cn5)CCC[C@@H]34)[C@@]2(C)CC1` [Example 54, 1-(3-((1S,4aS,4bR,6aS,9S,11aS,11bS,13aS)-9-hydroxy-9,11a,13a-trimethyloctadecahydro-1H-cyclohepta[a]phenanthren-1-yl)-3-oxopropyl)-1H-pyrazole-4-carbonitrile], the half-inhibitory concentration (IC50) was 100 to 1000 nM. In the case of `CC[C@@]1(O)CCC[C@H]2[C@H](CC[C@@H]3[C@@H]2CC[C@]2(C)[C@@H](C(=O)Cn4cc(C#N)cn4)CCC[C@@H]32)C1` [Example 14, 1-(2-((1S,4aS,4bR,6aR,8R,11aS,11bR,13aS)-8-ethyl-8-hydroxy-13a-methyloctadecahydro-1H-cyclohepta[a]phenanthren-1-yl)-2-oxoethyl)-1H-pyrazole-4-carbonitrile], the 50% inhibitory concentration (IC50) was in the range of 100 to 1000 nM. The same measure, in the same setting: for `COC[C@@]1(O)CCC[C@@]2(C)[C@@H](CC[C@@H]3[C@@H]2CC[C@]2(C)[C@@H](C(=O)Cn4cc(C#N)cn4)CCC[C@@H]32)C1` [Example 43] the value was under 100 nM; for `COC[C@]1(O)CC[C@H]2CC[C@@H]3[C@H](CC[C@]4(C)[C@@H](C(=O)Cn5cc(C#N)cn5)CCC[C@@H]34)[C@H]2CC1` [Example 46, 1-(2-((1S,4aS,4bR,6aR,9S,11aS,11bR,13aS)-9-hydroxy-9-(methoxymethyl)-13a-methyloctadecahydro-1H-cyclohepta[a]phenanthren-1-yl)-2-oxoethyl)-1H-pyrazole-4-carbonitrile], 100 to 1000 nM.

Staying with this test, now noted: Table 5, 3 nM [35S]-TBPS, in the presence of 5 mM GABA, read-out: TBPS IC50.
For the compound `Cc1nnnn1CC(=O)[C@H]1CC[C@H]2[C@@H]3CC[C@@H]4C[C@](C)(O)CC[C@@H]4[C@H]3CC[C@@H]21` [Example 70, 1-((3R,5R,8R,9R,10S,13S,14S,17S)-3-hydroxy-3-methylhexadecahydro-1H-cyclopenta[a]phenanthren-17-yl)-2-(5-methyl-1H-tetrazol-1-yl)ethan-1-one], the IC50 was under 100 nM.

Regarding `Cc1nnnn1CC(=O)[C@H]1CC[C@H]2[C@@H]3CC[C@H]4C[C@](C)(O)CC[C@@H]4[C@H]3CC[C@@H]21` [Example 76, 1-((3R,5S,8R,9R,10S,13S,14S,17S)-3-hydroxy-3-methylhexadecahydro-1H-cyclopenta[a]phenanthren-17-yl)-2-(5-methyl-1H-tetrazol-1-yl)ethanone], the IC50 is over 1000 nM. Consider `CC(=O)[C@H]1CCC[C@H]2[C@@H]3CC[C@@H]4C[C@](C)(O)CC[C@@H]4[C@H]3CC[C@@H]21` [Example 77, 1-((1S,4aS,4bR,6aR,8R,10aS,10bR,12aS)-8-hydroxy-8-methyloctadecahydrochrysen-1-yl)-ethanone], for which the IC50 is under 100 nM.

The same test, now with this note: Table 6, 3 nM [35S]-TBPS, in the presence of 5 mM GABA, read-out: IC50.
On to `CC(=O)[C@H]1CCC[C@H]2[C@@H]3CC[C@@H]4C[C@](C)(O)CC[C@]4(C4CC4)[C@H]3CC[C@]12C` [Example 85, 1-((1S,4aS,4bS,6aR,8R,10aR,10bS,12aS)-10a-cyclopropyl-8-hydroxy-8,12a-dimethyloctadecahydrochrysen-1-yl)ethan-1-one], for which the IC50 was under 100 nM.
